# Measurements as given in PubChem BioAssay (NCI).
# Several values for one entry are separate records, joined by “and”; a condition that tells them apart may be missing. Equal entries are not always repeated.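 Compound exposure: 48 hours, 5 concentrations, 96-well plates. Abbreviation: GI50, concentration required for 50% inhibition of growth. TGI denotes the concentration required for complete inhibition of growth.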
# Tests used:
# Test in all cases: inhibition of tumour cell growth, NCI panel, 48 h
# T-47D breast = system: T-47D breast
# HCT-15 colon = system: HCT-15 colon
# SW-620 colon = system: SW-620 colon
# SN12C renal = system: SN12C renal
# SK-MEL-5 melanoma = system: SK-MEL-5 melanoma
# NCI-H226 lung = system: NCI-H226 lung
# HCT-116 colon = system: HCT-116 colon
# NCI-H522 lung = system: NCI-H522 lung
# HL-60(TB) leukemia = system: HL-60(TB) leukemia
# MALME-3M melanoma = system: MALME-3M melanoma
# OVCAR-4 ovarian = system: OVCAR-4 ovarian
# OVCAR-8 ovarian = system: OVCAR-8 ovarian
Compound,TGI (T-47D breast),TGI (HCT-15 colon),TGI (SW-620 colon) [µM],TGI (SN12C renal),TGI (SK-MEL-5 melanoma),TGI (NCI-H226 lung) [µM],TGI (HCT-116 colon),TGI (NCI-H522 lung) [µM],TGI (HL-60(TB) leukemia),TGI (MALME-3M melanoma) [µM],TGI (OVCAR-4 ovarian) [µM],TGI (OVCAR-8 ovarian) [µM],GI50 (T-47D breast) [µM],GI50 (HCT-15 colon) [µM],GI50 (SN12C renal),GI50 (SK-MEL-5 melanoma),GI50 (NCI-H226 lung),GI50 (MALME-3M melanoma),GI50 (OVCAR-4 ovarian)
COC1(OC)c2occc2C(=N)c2ccc(=O)oc21,> 100 µM,> 100 µM,> 100,> 100 µM,49.2 µM,> 100,> 100 µM,> 100,> 100 µM,33.5,> 100,–,–,–,–,–,–,–,–
CCCCCCCCCCCCCCCCCCNc1ccn(C2OC(COP(=O)(O)OCC3OC(n4ccc(N)nc4=O)C(O)C3O)C(O)C2O)c(=O)n1 (centres undefined),> 100 µM,> 100 µM,> 100,> 100 µM,> 100 µM,> 100,> 100 µM,> 100,> 100 µM,> 100,> 100,> 62.2,–,–,–,–,–,–,–
C[C@H]1CC[C@@]2(OC1)O[C@H]1C[C@H]3[C@@H]4CC[C@@H]5C[C@@H](OC6OC(CO)C(O)C(O)C6OC6OC(CO)C(O)C(O)C6O)CC[C@]5(C)[C@H]4CC[C@]3(C)[C@H]1[C@@H]2C (some centres undefined),3.85 µM,3.67 µM,3.4,3.77 µM,3.93 µM,4.2,3.7 µM,4.75,3.25 µM,4.5,4.08,4.26,–,–,–,–,–,–,–
O=C(Nn1c(-c2ccccc2)nc2ccccc2c1=O)c1ccc(Cl)cc1,> 100 µM,> 100 µM,> 100,> 100 µM,> 100 µM,> 100,> 100 µM,> 100,> 100 µM,> 100,> 100,> 100,–,–,–,–,–,–,–
CCOC(=O)c1c(NC(=O)c2ccccc2)c(C#N)c2n1CCCCC2,> 100 µM,> 100 µM,–,> 100 µM,> 100 µM,> 100,> 100 µM,> 100,> 100 µM,> 100,> 100,> 100,–,–,–,–,–,–,–
C=CCC(CCC(C)=O)(C(=O)OCC)C(=O)OCC,> 100 µM,> 100 µM,> 100,> 100 µM,> 100 µM,> 100,> 100 µM,> 100,> 100 µM,> 100,> 100,> 100,–,–,–,–,–,–,–
CCN1CCC(O)(c2ccc([N+](=O)[O-])cc2)C(C(=O)c2ccc([N+](=O)[O-])cc2)C1 (centres undefined),46.4 µM,52.9 µM,> 100,38.8 µM,35.7 µM,61.3,32.6 µM,15.1,> 100 µM,48.6,83.9,81.9,–,–,–,–,–,–,–
COC(=O)/C=C(\C(=O)OC)c1cc(C)c2cc(C(C)C)ccc(C)c1-2,> 100 µM,27.5 µM,> 100,> 100 µM,80 µM,> 100,> 100 µM,50.3,> 100 µM,> 100,> 100,> 100,–,–,–,–,–,–,–
Cc1nc2sc3cccc(Cl)c3n2c(=O)c1N=Nc1ccc(Cl)cc1,> 100 µM,> 100 µM,> 100,> 100 µM,> 100 µM,> 100,> 100 µM,> 100,> 100 µM,> 100,> 100,> 100,–,–,–,–,–,–,–
CC1=NN(c2nc(N)nc(C(C)Cl)n2)C(C)(C)C1 (centres undefined),> 100 µM,> 100 µM,> 100,–,> 100 µM,> 100,> 100 µM,–,> 100 µM,–,> 100,> 100,–,–,–,–,–,–,–
CN(NC1=NCCO1)c1ccc2ccccc2c1,> 100 µM,> 100 µM,> 100,> 100 µM,93.3 µM,> 100,> 100 µM,> 100,52.7 µM,> 100,> 100,> 100,–,–,–,–,–,–,–
COC(=O)c1c(C)cccc1/C=C1\Cc2ccc(C)c(C)c2C1=O,> 100 µM,> 100 µM,> 100,> 100 µM,> 100 µM,> 100,> 100 µM,> 100,> 100 µM,> 100,> 100,> 100,–,–,–,–,–,–,–
O=c1[nH]c(N/N=C\C(O)C(O)C(O)C(O)CO)nc2ccccc12 (centres undefined),> 100 µM,> 100 µM,> 100,> 100 µM,> 100 µM,> 100,> 100 µM,–,> 100 µM,–,–,> 100,–,–,–,–,–,–,–
Cc1ccc(N=N/C(=N/NC(=O)c2ccccc2)c2ccc(N(CCC#N)CCC#N)cc2C)cc1,> 100 µM,> 100 µM,–,> 100 µM,> 100 µM,> 100,> 100 µM,42.2,> 100 µM,> 100,> 100,> 100,–,–,–,–,–,–,–
O=C(c1ccc(Cl)cc1)N(C(=O)N1CCCCC1)c1ccccc1,89 µM,> 100 µM,> 100,> 100 µM,> 100 µM,> 100,> 100 µM,–,> 100 µM,> 100,–,> 100,–,–,–,–,–,–,–
CC(=O)c1ccc(N=NN2CCCC2)cc1,> 100 µM,> 100 µM,> 100,> 100 µM,> 100 µM,> 100,> 100 µM,> 100,> 100 µM,–,> 100,> 100,–,–,–,–,–,–,–
COc1cc([C@@H]2c3cc4c(cc3[C@@H](Nc3ccc(NC(=O)c5cc([N+](=O)[O-])cn5C)cc3)[C@H]3COC(=O)[C@H]23)OCO4)cc(OC)c1O,28.8 µM and > 24.4 µM,1.54 µM and 2.48 µM,–,0.262 µM and 0.437 µM,0.183 µM and 0.316 µM,0.29,> 100 µM and 10 µM,> 100,0.201 µM and 0.0837 µM,–,> 100,1.04,0.0115,0.192,0.0231 µM and 0.055 µM,0.0291 µM and 0.0847 µM,0.179 µM and 0.0249 µM,0.279 µM and 0.115 µM,11.6 µM and 4.09 µM
Cc1cc(C)c(-c2no/c(=N\S(=O)(=O)c3ccc(Cl)cc3)o2)c(C)c1,> 100 µM,> 100 µM,> 100,> 100 µM,68 µM,> 100,> 100 µM,71.2,77.4 µM,> 100,> 100,> 100,–,–,–,–,–,–,–
